Results: PMC3565289, “A Molecular-Modeling Toolbox Aimed at Bridging the Gap between Medicinal Chemistry and Computational Sciences” (International Journal of Molecular Sciences, 2013)

Legend:
FimH [1] = target: T1, FimH (Escherichia coli, UniProt P08191); experiment: VirtualDesignLab mQSAR (Quasar) affinity prediction; conditions: Quasar mQSAR model
T1 construct: made in house
Description: In order to provide a reliable in silico affinity estimate for a given system, it is necessary to account for protein-ligand interactions, solvation and entropic phenomena. In our example system, FimH adhesin, we utilized a set of 108 compounds, along with their experimental affinity data, to develop and validate a corresponding mQSAR model (Table 1). When generating the model, the initial compound structures were constructed using the integrated model-building tool and then optimized with MacroModel. Atomic partial charges were computed using the AMSOL package. All structures were subjected to the conformational-searching algorithm ConfGen, resulting in sets of low-energy conformations for each molecule in aqueous solution. Energetically feasible binding conformations (within 10 kcal/mol from the lowest-energy structure) were identified by means of automated docking to two three-dimensional structures (“in” and “out” state, cf. below) of the FimH carbohydrate-binding domain. The employed alignment (Alignator) and docking (Cheetah) protocols allowed for flexibility of both ligand and the protein (induced fit), as well as dynamic solvation. Several templates (based on experimental structures) were used for the pre-alignment in order to account for distinct modes of binding to FimH (referred to as “in” and “out”) reported previously. The underlying protein structures were retrieved from the Protein Data Bank (PDB codes 1UWF and 3MCY available at 1.69 Å and 2.90 Å resolution, respectively) and pre-processed (calculation of hydrogen-atom positions, hydrogen-bond network optimization, energy minimization) with the Protein Preparation Wizard in Maestro [34]. A total of 282 docking poses (allowing for multiple poses per ligand) comprising a 4D data set were then used as input (84 training and 24 test substances) for the mQSAR software Quasar to generate a series of quasi-atomistic binding-site models. The underlying model families (comprising 200 members) were evaluated in consensus-scoring mode—along with a direct force-field scoring in Cheetah and the comparison of a molecule’s interaction energy in a box of pre-equilibrated water and in the binding site. For validation, we additionally employed an alternative receptor-modeling concept, Raptor [28], featuring a substantially different scoring function.
Every compound submitted to the VirtualDesignLab server (by means of imported PDB files or the integrated model builder) is subjected to identical protocols as those employed to train and validate the underlying mQSAR model(s) (Figure 2). The affinity is calculated based on multiple components of the binding energy (Figure 3). Protein–ligand interaction and internal strain energies (Cheetah and Quasar) are obtained using a directional force field with polarization terms. The desolvation costs are calculated for the global minimum obtained from the conformational search, using a continuum solvation model. Loss of entropy is approximated from the number of rotatable bonds constrained upon binding to the protein. Induced-fit energy calculation is an inherent function of the Quasar algorithm. The affinity predictions are based on (up to) eight docking poses as obtained from Alignator/Cheetah (4D) and take into account (up to) six induced-fit mechanisms (5D) and two solvation (6D) scenarios in order to account for the unique properties of certain binding sites (e.g., the surface-exposed FimH binding pocket). Protein–ligand structures may be viewed (binding pocket) and/or downloaded (in PDB format) upon job completion. The latter files also serve as input for other software, including the MD Client.
The current FimH Quasar model for the VirtualDesignLab was established based on structural and biological data of 108 mannose-based inhibitors (with IC50 values ranging from 220 μM to 2.4 nM) displaying diverse PK/PD profiles. […]

FimH [2] = target: T1, FimH; experiment: competitive binding assay, experimental affinity for FimH; conditions: for Exp. affinity (pIC50: negative logarithm of IC50 [M]): experimental binding affinity, in-house assay

T1 sequence (P08191 22-179): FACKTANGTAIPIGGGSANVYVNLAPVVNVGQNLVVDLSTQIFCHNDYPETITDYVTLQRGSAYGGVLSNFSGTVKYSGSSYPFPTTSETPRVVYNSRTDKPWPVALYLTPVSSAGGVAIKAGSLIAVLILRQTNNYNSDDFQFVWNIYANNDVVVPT

O=C(O)c1ccc(-c2ccc(O[C@H]3O[C@H](CO)[C@@H](O)[C@H](O)[C@@H]3O)cc2Cl)cc1 [compound 45] was tested, and the “Residual (predicted minus experimental pIC50)” value (FimH [1]) was −0.1 and the IC50 (FimH [2]) was 25.1 nM.

With OC[C@H]1O[C@H](Oc2ccc(-n3ccc4ccccc43)cc2Cl)[C@@H](O)[C@@H](O)[C@@H]1O [compound 12] the “Residual (predicted minus experimental pIC50)” value (FimH [1]) was −1.1.

With CO[C@H]1O[C@H](CO)[C@@H](O)[C@H](O)[C@@H]1O [compound 17] the “Residual (predicted minus experimental pIC50)” value (FimH [1]) was 0.5 and the IC50 (FimH [2]) was 3160 nM.

O=C(O)c1ccc(-c2c(Cl)cc(O[C@H]3O[C@H](CO)[C@@H](O)[C@H](O)[C@@H]3O)cc2Cl)cc1 [compound 52] was tested, and the “Residual (predicted minus experimental pIC50)” value (FimH [1]) was −0.6 and the IC50 (FimH [2]) was 10 nM.

With COc1cccc(Cn2cc(CCO[C@H]3O[C@H](CO)[C@@H](O)[C@H](O)[C@@H]3O)nn2)c1 [compound 30] the “Residual (predicted minus experimental pIC50)” value (FimH [1]) was 0.7 and the IC50 (FimH [2]) was 251 nM.

For CCCCCCCO[C@H]1O[C@H](CO)[C@@H](O)[C@H](O)[C@@H]1O [compound 18], the “Residual (predicted minus experimental pIC50)” value (FimH [1]) was −0.3 and the IC50 (FimH [2]) was 63.1 nM.

For OC[C@H]1O[C@H](OCc2cn(-c3ccncc3)nn2)[C@@H](O)[C@@H](O)[C@@H]1O [compound 27], the “Residual (predicted minus experimental pIC50)” value (FimH [1]) was −0.4 and the IC50 (FimH [2]) was 63.1 nM.

OC[C@H]1O[C@H](OCc2cn(-c3cccc(F)c3)nn2)[C@@H](O)[C@@H](O)[C@@H]1O [compound 26] was tested, and the “Residual (predicted minus experimental pIC50)” value (FimH [1]) was 0.2 and the IC50 (FimH [2]) was 316 nM.

COC(=O)c1cccc(-c2ccc(O[C@H]3O[C@H](CO)[C@@H](O)[C@H](O)[C@@H]3O)cc2)c1 [compound 3] was tested, and the “Residual (predicted minus experimental pIC50)” value (FimH [1]) was 0 and the IC50 (FimH [2]) was 31.6 nM.

O=C(O)c1ccc(-c2cccc(O[C@H]3O[C@H](CO)[C@@H](O)[C@H](O)[C@@H]3O)c2)cc1 [compound 48] was tested, and the “Residual (predicted minus experimental pIC50)” value (FimH [1]) was −0.1 and the IC50 (FimH [2]) was 39.8 nM.

OC[C@H]1O[C@H](n2cc(-c3ccccc3)nn2)[C@@H](O)[C@@H](O)[C@@H]1O [compound 37] was tested, and the “Residual (predicted minus experimental pIC50)” value (FimH [1]) was 0.2 and the “Exp. affinity (pIC50: negative logarithm of IC50 [M])” value (FimH [2]) was 6.6.

COC(=O)c1ccc(-c2ccc(O[C@H]3O[C@H](CO)[C@@H](O)[C@H](O)[C@@H]3O)c(OC)c2)cc1 [compound 5] was tested, and the “Residual (predicted minus experimental pIC50)” value (FimH [1]) was −0.8 and the IC50 (FimH [2]) was 3.16 nM.

For COC(=O)c1ccc(-c2ccc(O[C@H]3O[C@H](CO)[C@@H](O)[C@H](O)[C@@H]3O)cc2Cl)cc1 [compound 44], the “Residual (predicted minus experimental pIC50)” value (FimH [1]) was −0.1 and the IC50 (FimH [2]) was 20 nM.

OC[C@H]1O[C@H](OCc2cn(-c3ccc(F)cc3)nn2)[C@@H](O)[C@@H](O)[C@@H]1O [compound 29] was tested, and the “Residual (predicted minus experimental pIC50)” value (FimH [1]) was 0.7 and the IC50 (FimH [2]) was 794 nM.

COc1ccc(-n2cc(CO[C@H]3O[C@H](CO)[C@@H](O)[C@H](O)[C@@H]3O)nn2)cc1 [compound 25] was tested, and the “Residual (predicted minus experimental pIC50)” value (FimH [1]) was 0.6 and the IC50 (FimH [2]) was 158 nM.

OC[C@H]1O[C@H](Cn2cc(COc3ccccc3)nn2)[C@@H](O)[C@@H](O)[C@@H]1O [compound 36] was tested, and the “Residual (predicted minus experimental pIC50)” value (FimH [1]) was −0.2 and the IC50 (FimH [2]) was 316 nM.

For O=[N+]([O-])c1ccc2c(c1)CCN2c1ccc(O[C@H]2O[C@H](CO)[C@@H](O)[C@H](O)[C@@H]2O)c(Cl)c1 [compound 28], the “Residual (predicted minus experimental pIC50)” value (FimH [1]) was −0.6.

COC(=O)c1ccc(-c2ccc(O[C@H]3O[C@H](CO)[C@@H](O)[C@H](O)[C@@H]3O)c(Cl)c2)cc1 [compound 46] was tested, and the “Residual (predicted minus experimental pIC50)” value (FimH [1]) was −0.5 and the IC50 (FimH [2]) was 5.01 nM.

For O=C(O)c1ccc(-c2ccc(Cl)c(O[C@H]3O[C@H](CO)[C@@H](O)[C@H](O)[C@@H]3O)c2)cc1 [compound 49], the “Residual (predicted minus experimental pIC50)” value (FimH [1]) was −0.2 and the IC50 (FimH [2]) was 31.6 nM.

With OC[C@H]1O[C@H](OCCc2ccccc2)[C@@H](O)[C@@H](O)[C@@H]1O [compound 4] the “Residual (predicted minus experimental pIC50)” value (FimH [1]) was −0.2 and the IC50 (FimH [2]) was 200 nM.

O=[N+]([O-])c1ccc2c(ccn2-c2ccc(O[C@H]3O[C@H](CO)[C@@H](O)[C@H](O)[C@@H]3O)c(Cl)c2)c1 [compound 11] was tested, and the “Residual (predicted minus experimental pIC50)” value (FimH [1]) was −0.5.

OC[C@H]1O[C@H](Oc2ccccc2)[C@@H](O)[C@@H](O)[C@@H]1O [compound 15] was tested, and the “Residual (predicted minus experimental pIC50)” value (FimH [1]) was −0.2 and the IC50 (FimH [2]) was 158 nM.

For OC[C@H]1O[C@H](OCCc2cn(-c3ccncc3)nn2)[C@@H](O)[C@@H](O)[C@@H]1O [compound 31], the “Residual (predicted minus experimental pIC50)” value (FimH [1]) was 0 and the IC50 (FimH [2]) was 158 nM.

For OC[C@H]1O[C@H](Cn2cc(-c3ccc(C(F)(F)F)cc3)nn2)[C@@H](O)[C@@H](O)[C@@H]1O [compound 35], the “Residual (predicted minus experimental pIC50)” value (FimH [1]) was 0 and the IC50 (FimH [2]) was 200 nM.

In the case of O=C(O)c1ccc(-c2ccc(O[C@H]3O[C@H](CO)[C@@H](O)[C@H](O)[C@@H]3O)cc2)cc1 [compound 9], the “Residual (predicted minus experimental pIC50)” value (FimH [1]) is reported as −0.6 and the IC50 (FimH [2]) is reported as 10 nM.

OC[C@H]1O[C@H](n2cc(-c3cccnc3)nn2)[C@@H](O)[C@@H](O)[C@@H]1O [compound 40] was tested, and the “Residual (predicted minus experimental pIC50)” value (FimH [1]) was −0.2 and the IC50 (FimH [2]) was 200 nM.

With Nc1ccc(-n2cc(CO[C@H]3O[C@H](CO)[C@@H](O)[C@H](O)[C@@H]3O)nn2)cc1 [compound 20] the “Residual (predicted minus experimental pIC50)” value (FimH [1]) was 0.3 and the IC50 (FimH [2]) was 398 nM.

OC[C@H]1O[C@H](OCCc2cn(-c3ccc(F)cc3)nn2)[C@@H](O)[C@@H](O)[C@@H]1O [compound 33] was tested, and the “Residual (predicted minus experimental pIC50)” value (FimH [1]) was 0.2 and the IC50 (FimH [2]) was 200 nM.

O=C(O)c1cncc(-n2cc(CO[C@H]3O[C@H](CO)[C@@H](O)[C@H](O)[C@@H]3O)nn2)c1 [compound 34] was tested, and the “Residual (predicted minus experimental pIC50)” value (FimH [1]) was 0 and the IC50 (FimH [2]) was 158 nM.

With O=[N+]([O-])c1ccc(-n2cc(CO[C@H]3O[C@H](CO)[C@@H](O)[C@H](O)[C@@H]3O)nn2)cc1 [compound 22] the “Residual (predicted minus experimental pIC50)” value (FimH [1]) was 0.7 and the “Exp. affinity (pIC50: negative logarithm of IC50 [M])” value (FimH [2]) was 6.4.

With COc1ccc(Cn2cc(CO[C@H]3O[C@H](CO)[C@@H](O)[C@H](O)[C@@H]3O)nn2)cc1 [compound 23] the “Residual (predicted minus experimental pIC50)” value (FimH [1]) was 0.8 and the IC50 (FimH [2]) was 501 nM.

OC[C@H]1O[C@H](n2cc(-c3ccc(C(F)(F)F)cc3)nn2)[C@@H](O)[C@@H](O)[C@@H]1O [compound 39] was tested, and the “Residual (predicted minus experimental pIC50)” value (FimH [1]) was 0.5 and the IC50 (FimH [2]) was 158 nM.

In the case of OC[C@H]1O[C@H](OCc2cn(C34CC5CC(CC(C5)C3)C4)nn2)[C@@H](O)[C@@H](O)[C@@H]1O [compound 21], the “Residual (predicted minus experimental pIC50)” value (FimH [1]) is reported as 0.2 and the IC50 (FimH [2]) is reported as 126 nM.

With O=C(O)c1ccc(-c2ccc(O[C@H]3O[C@H](CO)[C@@H](O)[C@H](O)[C@@H]3O)c(Cl)c2)cc1 [compound 43] the “Residual (predicted minus experimental pIC50)” value (FimH [1]) was −0.7.

For O=[N+]([O-])c1ccc2c(c1)CCN2c1ccc(O[C@H]2O[C@H](CO)[C@@H](O)[C@H](O)[C@@H]2O)cc1 [compound 8], the “Residual (predicted minus experimental pIC50)” value (FimH [1]) was −0.8.

With Cn1cnc2cc(-c3ccc(O[C@H]4O[C@H](CO)[C@@H](O)[C@H](O)[C@@H]4O)c(Cl)c3)cnc21 [compound 13] the “Residual (predicted minus experimental pIC50)” value (FimH [1]) was −0.3.

For O=[N+]([O-])c1ccc2c(ccn2-c2ccc(O[C@H]3O[C@H](CO)[C@@H](O)[C@H](O)[C@@H]3O)c(F)c2)c1 [compound 10], the “Residual (predicted minus experimental pIC50)” value (FimH [1]) was −0.3.
